In assay [1] the test system is Staphylococcus haemolyticus 415. As to the kind of experiment: broth micro-dilution MIC. The assay is classed as cell-based. As for the experimental part:
(§1) The formula I compounds have in vitro and in vivo activity against Gram-positive pathogenic bacteria. The MIC's were determined using a standard broth micro-dilution assay.

Assay [2] relates to Haemophilus influenzae RD. Put plainly: broth micro-dilution MIC. To be noted: Haemophilus influenzae RD. Type of assay: cell-based. The protocol: as §1
(In broth dilution the organism is exposed to a series of concentrations in liquid medium.)

The test system of assay [3] is Enterococcus gallinarum 245. As to the kind of experiment: broth micro-dilution MIC. Type of assay: cell-based. The note with it: Enterococcus gallinarum 245. The protocol:
as §1

Assay [4] deals with Streptococcus pneumoniae P1. As to the kind of experiment: broth micro-dilution MIC. The assay is classed as cell-based. As for the experimental part:
as §1

Assay [5] deals with Staphylococcus epidermidis 270. As to the kind of experiment: broth micro-dilution MIC. Type of assay: cell-based. The protocol:
as §1

The test system of assay [6] is Entercoccus faecium 2041. Put plainly: broth micro-dilution MIC. Type of assay: cell-based. The note with it: Entercoccus faecium 2041. As for the experimental part:
as §1

Assay [7] concerns vancomycin-resistant enterococci. Put plainly: broth micro-dilution, mean geometric MIC. The assay is classed as cell-based, Enterococcus faecium and Enterococcus faecalis. The note with it: enterococci, 24-hour incubation.
The subject of assay [8] is Entercoccus faecium 180-1. As to the kind of experiment: broth micro-dilution MIC. Type of assay: cell-based. As for the experimental part: (§2) The MIC's were determined using a standard broth micro-dilution assay.
The subject of assay [9] is Staphylococcus aureus 491. Put plainly: broth micro-dilution MIC. The assay is classed as cell-based. The protocol:
as §2

Assay [10] has as its system Staphylococcus aureus 447. Put plainly: broth micro-dilution MIC. The assay is classed as cell-based. As for the experimental part:
as §2

The test system of assay [11] is Staphylococcus aureus SA1199. As to the kind of experiment: broth micro-dilution MIC. Type of assay: cell-based. As for the experimental part: as §2
The subject of assay [12] is Staphylococcus aureus 489. Put plainly: broth micro-dilution MIC. The assay is classed as cell-based. The protocol: as §2
Assay [13] has as its system Streptococcus pyogenes C203. As to the kind of experiment: broth micro-dilution MIC. Type of assay: cell-based. The protocol: as §2
Assay [14] deals with Staphylococcus aureus SA1199A. As to the kind of experiment: broth micro-dilution MIC. Type of assay: cell-based. The protocol: as §2
Assay [15] deals with Staphylococcus aureus 446. As to the kind of experiment: broth micro-dilution MIC. The assay is classed as cell-based. The protocol:
as §2

In assay [16] the test system is vancomycin-susceptible enterococci. Put plainly: broth micro-dilution, mean geometric MIC. The assay is classed as cell-based, Enterococcus faecium and Enterococcus faecalis. To be noted: enterococci, 24-hour incubation.
Assay [17] deals with Staphylococcus aureus SA1199B. The assay is classed as cell-based. The protocol:
as §2

Assay [18] relates to Entercoccus faecium 180. As to the kind of experiment: broth micro-dilution MIC. Type of assay: cell-based. To be noted: Entercoccus faecium 180. As for the experimental part: as §1
In assay [19] the test system is Staphylococcus haemolyticus 105. Put plainly: broth micro-dilution MIC. The assay is classed as cell-based. As for the experimental part: as §1
The subject of assay [20] is Staphylococcus aureus X400. Put plainly: broth micro-dilution MIC. Type of assay: cell-based. The protocol:
as §2

Assay [21] relates to Staphylococcus aureus X778. Put plainly: broth micro-dilution MIC. The assay is classed as cell-based. The protocol: as §2
Assay [22] relates to Entercoccus faecium 276. As to the kind of experiment: broth micro-dilution MIC. Type of assay: cell-based. The protocol: as §2
For assay [23], the system named is Staphylococcus aureus S13E. Type of assay: cell-based. The protocol:
as §2

≈ marks a conversion by molar mass, not a printed value. A value given as a limit tells only on which side of the number the result lay.

Regarding `CNC(CC(C)C)C(=O)NC1C(=O)NC(CC(N)=O)C(=O)NC2C(=O)NC3C(=O)NC(C(=O)NC(C(=O)O)c4cc(O)cc(O)c4-c4cc3ccc4O)C(OC3CC(C)(N)C(O)C(C)O3)c3ccc(c(Cl)c3)Oc3cc2cc(c3OC2OC(CO)C(O)C(O)C2OC2CC(C)(NCCCC3CCCC3)C(O)C(C)O2)Oc2ccc(cc2Cl)C1O` (stereo not shown) [Compound 208], the MIC in assay [1] is 2 µg/mL (≈ 1.17 µM); in [2] it was 32 µg/mL (≈ 18.8 µM); in [3], 2 µg/mL (≈ 1.17 µM); in assay [4], no more than 0.06 µg/mL; in [5], 0.5 µg/mL (≈ 0.294 µM); in assay [6] it was no more than 0.06 µg/mL. In addition, the MIC in assay [8] was no more than 0.06 µg/mL; in assay [9] it was 0.5 µg/mL (≈ 0.294 µM); in assay [10], 1 µg/mL (≈ 0.587 µM); in [11], 0.5 µg/mL (≈ 0.294 µM); in [12], 0.5 µg/mL (≈ 0.294 µM); in assay [13], no more than 0.06 µg/mL. Further, the MIC in assay [14] was no more than 0.06 µg/mL; in [15] it was 1 µg/mL (≈ 0.587 µM); in [17], 0.5 µg/mL (≈ 0.294 µM). In addition, the “mean geometric MIC, Vancomycin Resistant Strains” value in [7] came to 2.8 µg/mL. Further, in assay [16], the “mean geometric MIC, Vancomycin Sensitive Strains” value is 0.17 µg/mL.

For `CNC(CC(C)C)C(=O)NC1C(=O)NC(CC(N)=O)C(=O)NC2C(=O)NC3C(=O)NC(C(=O)NC(C(=O)O)c4cc(O)cc(O)c4-c4cc3ccc4O)C(OC3CC(C)(N)C(O)C(C)O3)c3ccc(c(Cl)c3)Oc3cc2cc(c3OC2OC(CO)C(O)C(O)C2OC2CC(C)(NCc3ccc(-c4ccc(C#N)cc4)cc3)C(O)C(C)O2)Oc2ccc(cc2Cl)C1O` (stereo not shown) [Compound 231], the MIC in [1] was 0.5 µg/mL (≈ 0.28 µM); in assay [2] it was 32 µg/mL (≈ 17.9 µM); in assay [18], no more than 0.06 µg/mL; in assay [3], 0.5 µg/mL (≈ 0.28 µM); in assay [4], no more than 0.06 µg/mL; in assay [6], no more than 0.06 µg/mL. Further, the MIC in assay [19], in assay [8], in [9], in assay [20], in assay [21] and in assay [11] was no more than 0.06 µg/mL each time. In addition, the MIC in assay [12], in [13], in assay [22], in [14], in assay [23] and in [17] was no more than 0.06 µg/mL throughout. For the same compound, in [7], the “mean geometric MIC, Vancomycin Resistant Strains” value stood at 1.7 µg/mL. Moreover, in [16], the “mean geometric MIC, Vancomycin Sensitive Strains” value worked out at 0.11 µg/mL.

In the case of `CNC(CC(C)C)C(=O)NC1C(=O)NC(CC(N)=O)C(=O)NC2C(=O)NC3C(=O)NC(C(=O)NC(C(=O)O)c4cc(O)cc(O)c4-c4cc3ccc4O)C(OC3CC(C)(N)C(O)C(C)O3)c3ccc(c(Cl)c3)Oc3cc2cc(c3OC2OC(CO)C(O)C(O)C2OC2CC(C)(NCc3ccc(C#Cc4ccccc4)cc3)C(O)C(C)O2)Oc2ccc(cc2Cl)C1O` (stereo not shown) [Compound 79], the MIC in [1] is 4 µg/mL (≈ 2.24 µM); in [2] it was 16 µg/mL (≈ 8.98 µM); in [18], no more than 0.06 µg/mL; in assay [3], no more than 0.06 µg/mL; in assay [4] it was no more than 0.06 µg/mL; in assay [5], 0.5 µg/mL (≈ 0.28 µM). The MIC in assay [6] was no more than 0.06 µg/mL; in assay [19], 4 µg/mL (≈ 2.24 µM); in assay [8] it was no more than 0.06 µg/mL; in assay [9] it was 4 µg/mL (≈ 2.24 µM); in assay [10], 2 µg/mL (≈ 1.12 µM); in [21] it was 2 µg/mL (≈ 1.12 µM). In addition, the MIC is 1 µg/mL (≈ 0.561 µM) in assay [11]; 2 µg/mL (≈ 1.12 µM) in [12]; no more than 0.06 µg/mL in assay [13]; no more than 0.06 µg/mL in assay [22]; 2 µg/mL (≈ 1.12 µM) in assay [15]; 4 µg/mL (≈ 2.24 µM) in [23]. The same compound showed an MIC in assay [17] of 1 µg/mL (≈ 0.561 µM). In [7], the “mean geometric MIC, Vancomycin Resistant Strains” value stood at 0.84 µg/mL. The “mean geometric MIC, Vancomycin Sensitive Strains” value in assay [16] is 0.042 µg/mL.

Source of the values: patent US5840684A, “Glycopeptide antibiotic derivatives” (Eli Lilly and Company, priority 1995, dated 1998).
